From patent US6103709A (priority 1998, dated 2000) come the findings set out here.

For test [1], the target named is T1, human vitamin D-binding protein (hDBP) (Homo sapiens, UniProt P02774).
T1 sequence (P02774 17-474): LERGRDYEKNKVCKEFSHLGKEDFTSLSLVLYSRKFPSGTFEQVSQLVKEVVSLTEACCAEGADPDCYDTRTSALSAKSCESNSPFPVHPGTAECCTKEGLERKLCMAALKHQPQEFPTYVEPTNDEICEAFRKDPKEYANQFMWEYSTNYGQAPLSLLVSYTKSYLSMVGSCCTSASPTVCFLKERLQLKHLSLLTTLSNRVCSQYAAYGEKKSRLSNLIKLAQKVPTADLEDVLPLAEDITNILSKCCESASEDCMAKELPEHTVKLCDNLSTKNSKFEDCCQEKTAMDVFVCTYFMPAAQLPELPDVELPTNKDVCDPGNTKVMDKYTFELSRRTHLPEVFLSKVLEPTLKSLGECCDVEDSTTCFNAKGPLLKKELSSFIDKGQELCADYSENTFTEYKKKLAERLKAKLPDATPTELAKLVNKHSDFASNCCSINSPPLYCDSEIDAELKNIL
As to the kind of experiment: Relative Competitive Index assay, vitamin D-binding protein. The following applies: for Vit D Binding Protein (RCI): RCI of 1α,25(OH)2 D3 set to 100, 4° C., pH 7.4; for DBP binding (in words): compared with 1α,25(OH)2 D3. An excerpt: The compared analogs are 14α,15α-methano-1α,25(OH)2 D3 (LO), 22(m(dimethylhydroxymethyl)phenyl)-23,24,25,26,27-pentanor-1α- OH-D3 (EV) and (22R)-1,25(OH)2 -22,23,diene-D3 (HR), all conformationally flexible genomic agonists. By definition the RCI for 1α,25(OH)2 D3 is set to 100%. The data seen in FIG. 7 represent the mean of three determinations.
Vitamin D-Binding Protein Assay Relative Competitive Index
This example describes a Relative Competitive Index Assay used for determination of analogs binding affinity to vitamin D-binding protein.
Phase separation was then obtained by the addition of 0.5 ml of cold dextran-coated charcoal.
The data was plotted as [competitor]/[[^3 H]25(OH)D3 ] vs. 1/[fraction bound]. The RCI was calculated as [slope of competitor]/[slopefor 25(OH)D3 ]×100. Results are seen in FIG. 7. Although each analog was assayed in competition with [^3 H]25(OH)D3, the data are expressed as relative to the binding of 1α,25(OH)2 D3, with its RCI set to 100.

The test system of test [2] is vitamin D-deficient chick. As to the kind of experiment: Intestinal Ca2+ absorption (ICA) in vitamin D-deficient chick. The test is classed as in vivo. To be noted: i.m.; for Classic Vit D Responses ICA: relative to 100 pmol 1α,25(OH)2 D3 = 100%, 12 h before assay.
Test [3] concerns vitamin D-deficient chick. The test is described as follows: Bone Ca2+ mobilizing activity (BCM) in vitamin D-deficient chick. The following applies: i.m.; for Classic Vit D Responses BCM: relative to 100 pmol 1α,25(OH)2 D3 = 100%, 12 h before assay. The test is classed as in vivo.
The next test deals with VDRnuc. The test is described as follows: Genomic response (summary classification). To be noted: Yes/No, Tables 1 and 6.
Another test relates to VDRmem. As to the kind of experiment: Rapid response (summary classification). To be noted: for Rapid Response: Yes/No, Tables 1 and 6.
In a further test the test system is rapid responses (VDRmem). As to the kind of experiment: Antagonist function (summary classification). To be noted: Yes/No, Tables 1 and 6.

On to `C[C@H](CCCC(C)(C)O)[C@H]1CC[C@H]2C3=CC=C4C[C@@H](O)C[C@H](O)[C@]4(C)[C@@H]3CC[C@]12C` [JP], for which, in test [1], the “Vit D Binding Protein (RCI)” value is -5.0 and the “DBP binding (in words)” value is “lower than 1α,25(OH)2 D3”. Besides, the “Classic Vit D Responses ICA” value in test [2] was 0.5%. The “Classic Vit D Responses BCM” value in test [3] is 0.8%. Moreover, the “Genomic Response” value in the test on VDRnuc is on record as “No”. In the test with VDRmem, the “genomic and/or rapid responses elicited (in words)” value is “elicit solely rapid responses” and the “Rapid Response” value was “Yes”. The Antagonist result in the test with rapid responses (VDRmem) was “No”.
As for `CC1=C(C=C=C2CCC[C@]3(C)[C@@H]([C@H](C)CCCC(C)(C)O)CC[C@@H]23)C[C@@H](O)C[C@@H]1O` [JV], in test [1], the “Vit D Binding Protein (RCI)” value was found to be 37 and the “DBP binding (in words)” value is listed as “lower than 1α,25(OH)2 D3”. Besides, the “Classic Vit D Responses ICA” value in test [2] stood at 0.02%. In addition, the “Classic Vit D Responses BCM” value in test [3] was 0.02%. In addition, in the test with VDRnuc, the “Genomic Response” value is listed as “Yes”. Moreover, the “Rapid Response” value in the test on VDRmem is “Yes”. Besides, the Antagonist result with rapid responses (VDRmem) is listed as “No”.
As for `CC1=C(C=C=C2CCC[C@]3(C)[C@@H]([C@H](C)CCCC(C)(C)O)CC[C@@H]23)C[C@@H](O)C[C@@H]1O` [JW], the “Vit D Binding Protein (RCI)” value in test [1] is given as 700. Besides, the “Classic Vit D Responses ICA” value in test [2] is on record as 0.05%. In addition, the “Classic Vit D Responses BCM” value in test [3] is 0.3%. In addition, the “Genomic Response” value in the test on VDRnuc was “Yes”. Besides, in the test on VDRmem, the “Rapid Response” value is recorded as “Yes”. In addition, the Antagonist result in the test on rapid responses (VDRmem) is listed as “No”.
Regarding `C=C1CC[C@H](O)C/C1=C/C=C1\CCC[C@]2(C)[C@@H]([C@H](C)Cc3ccc(O)cc3)CC[C@@H]12` [JX], in test [1], the “Vit D Binding Protein (RCI)” value is reported as 211,000 and the “DBP binding (in words)” value is “binds very tightly to DBP”. Further, the “RCI for DBP, times greater than 1α,25(OH)2 D3” value in test [1] (relative to reference 1α,25(OH)2 D3) is reported as 2110 times. Besides, the “Classic Vit D Responses ICA” value in test [2] is under 0.05%. For the same molecule, the “Classic Vit D Responses BCM” value in test [3] is under 0.05%. The “Genomic Response” value in the test on VDRnuc is reported as “Yes”. Moreover, the “Rapid Response” value with VDRmem is on record as “Yes”. Besides, the Antagonist result with rapid responses (VDRmem) was “No”.
`C=C1CC[C@H](O)C/C1=C/C=C1\CCC[C@]2(C)[C@@H]([C@H](C)Cc3cccc(O)c3)CC[C@@H]12` [JY]: the “Vit D Binding Protein (RCI)” value in test [1] is reported as 132,000. In addition, the “Classic Vit D Responses ICA” value in test [2] is under 0.05%. In test [3], the “Classic Vit D Responses BCM” value is under 0.05%. The “Genomic Response” value in the test on VDRnuc is given as “Yes”. Also, the “Rapid Response” value in the test on VDRmem is reported as “Yes”. In the test with rapid responses (VDRmem), the Antagonist result is given as “No”.
For `C=C1/C(=C\C=C2/CCC[C@]3(C)[C@@H]([C@H](C)CCCC(C)(C)O)C[C@@H]4C[C@@]243)C[C@@H](O)C[C@@H]1O` [LO], the “Binding to DBP relative to 1α,25(OH)2 D3 (RCI, FIG. 7)” value in test [1] (1α,25(OH)2 D3 = 100%, mean of three determinations) came out at 60%. In addition, in test [1], the “Vit D Binding Protein (RCI)” value came to 60 and the “DBP binding (in words)” value is on record as “lower than 1α,25(OH)2 D3”. Also, the “Classic Vit D Responses ICA” value in test [2] is 30%. The “ICA (in words)” value in test [2] (vitamin D-deficient chick) is on record as “reasonable stimulator of intestinal Ca^2+ absorption (ICA)”. Moreover, the “BCM (in words)” value in test [3] (vitamin D-deficient chick) is recorded as “highly effective stimulator of bone Ca^2+ mobilizing activity (BCM)”. Besides, in the test on VDRnuc, the “Genomic Response” value is “Yes”. The “Rapid Response” value in the test with VDRmem is on record as “Yes”. Moreover, the Antagonist entry in the test on rapid responses (VDRmem) is on record as “No”.
